According to paper PMC6736568, “Discovery of Novel Anti-cryptosporidial Activities From Natural Products by in vitro High-Throughput Phenotypic Screening” (Frontiers in Microbiology, 2019):
Read-outs that look alike come from different tables or passages of the source.

Assays:
[1] = system: Cryptosporidium parvum; experiment: qRT-PCR assay of the growth of C. parvum in vitro in HCT-8 host cells (primary and secondary screening, EC50); assay type: cell-based
[2] = system: HCT-8 host cells (Hs18S)
[3] = primary screening at 10 uM, from Hs18S ΔCT
[4] = primary screening at 10 uM, treated vs control

Structure (SMILES) | Inhibition (%) ([1]; primary screening at 10 uM) | Cytotoxicity (%) ([2]; 10 µM) | Cytotoxicity (%) [2, 3] [%] | Hs18S ΔCT [2, 4] | Inhibition (%) ([1]; 10 µM) | Hs18S ΔCT [2] | % Inhibition (3.3 uM) ([1]; secondary screening at 3.3 uM) [%]
O=C(O)c1cc(O)c(=O)c2c(O)c(O)cc([C@H]3Oc4cc(O)cc(O)c4C[C@H]3O)c2c1 [EPITHEAFLAVIC ACID] | -9.36 | 6.9% |  |  |  |  | 
CC(=O)O[C@@H]1CC2C(C)(C)C(=O)C3OC3[C@]2(C)C2CC[C@@]3(C)[C@H](c4ccoc4)OC(=O)C4OC43[C@@]21C (some centres unmarked) [EPOXYGEDUNIN] | 29.04 |  | -37.3 | -0.46 |  |  | 
CC(=O)O[C@H]1CC[C@@]2(C)C(=CC=C3[C@@H]4CC[C@H]([C@H](C)/C=C/[C@H](C)C(C)C)[C@@]4(C)CC[C@@H]32)C1 [ERGOSTEROL ACETATE] | -10.68 |  | 3.7 | 0.06 |  |  | 
O=C[C@H](O)[C@H](O)CO [ERYTHROSE] | 57.20 |  | 14.6 | 0.23 |  |  | 
O.O=c1ccc2cc(O[C@@H]3OC(CO)[C@@H](O)[C@@H](O)C3O)c(O)cc2o1 (some centres unmarked) [ESCULIN MONOHYDRATE] | 10.62 |  | -34.0 | -0.42 |  |  | 
COc1c(-c2ccccc2)oc2cc(O)cc(O)c2c1=O [GALANGIN 3-O-METHYL ETHER] | -5.04 | -45.3% |  |  |  |  | 
COc1cc(OC)c2c(=O)c(OC)c(-c3ccccc3)oc2c1 [GALANGIN TRIMETHYL ETHER] | -18.22 |  | 8.8 | 0.13 |  |  | 
NC(=O)CC[C@H](N)C(=O)O [GLUTAMINE (D)] | 2.46 |  | -11.8 | -0.16 |  |  | 
CC1(C)[C@@H](O[C@H]2O[C@H](C(=O)O)[C@@H](O)[C@H](O)[C@H]2O[C@@H]2O[C@H](C(=O)O)[C@@H](O)[C@H](O)[C@H]2O)CC[C@]2(C)[C@H]3C(=O)C=C4[C@@H]5C[C@@](C)(C(=O)O)CC[C@]5(C)CC[C@@]4(C)[C@]3(C)CC[C@@H]12.N [GLYCYRRHIZIC ACID, AMMONIUM SALT] | 1.41 |  | -43.6 | -0.52 |  |  | 
O=c1c(O)c(-c2ccc(O)c(O)c2)oc2c(O[C@@H]3O[C@H](CO)[C@@H](O)[C@H](O)[C@H]3O)c(O)cc(O)c12 [GOSSYPIN] | -22.05 |  | -4.8 | -0.07 |  |  | 
CC(=O)O.Cc1cc2c(C(C)C)c(O)c(O)c(C=O)c2c(O)c1-c1c(C)cc2c(C(C)C)c(O)c(O)c(C=O)c2c1O [GOSSYPOL-ACETIC ACID COMPLEX] | -21.55 |  | -7.1 | -0.10 |  |  | 
C[C@H]1CC[C@@H](C(C)(C)O)CC2=C1CC[C@@H]2C [GUAIOL(-)] |  | 12.7 |  |  | -22.71 | 0.20 | 
CC(=O)Oc1cc2c(cc1OC(C)=O)[C@@H]1c3ccc(OC(C)=O)c(OC(C)=O)c3OC[C@]1(OC(C)=O)C2 [HAEMATOXYLIN PENTAACETATE] | -26.73 |  | 12.3 | 0.19 |  |  | 
COc1ccc([C@@H]2CC(=O)c3c(O)cc(O[C@@H]4O[C@H](CO[C@@H]5O[C@@H](C)[C@H](O)[C@@H](O)[C@H]5O)[C@@H](O)[C@H](O)[C@H]4O)cc3O2)cc1O [HESPERIDIN] | 66.25 |  | 21.5 | 0.35 |  |  | 36
